Measured values: patent EP1157002B1, “1,2,3,4-TETRAHYDRO-1-NAPHT[…] USEFUL IN THERAPY” (Pfizer Limited, priority 1999, dated 2000)
pIC50: −log10 of the molar value. Counter-ions that a name gives are not always drawn. Like-named read-outs stand apart in the source and are kept apart here.

Target: T1, human serotonin transporter (hSERT) (Homo sapiens, UniProt P31645)
T1 construct: expressed in transfected cells; host or cells: HEK-293 (human embryonic kidney cells), stably transfected
Assay: Test A: uptake of 3H-serotonin into human embryonic kidney cells (HEK-293) expressing the human serotonin transporter
Format: cell-based
Procedure: Uptake of ^3H-biogenic amines into human embryonic kidney cells expressing the human serotonin (5-HT), noradrenalin or dopamine transporter
Human embryonic kidney cells (HEK-293) stably transfected with either the human serotonin transporter (hSERT), noradrenalin transporter (hNET) or dopamine transporter (hDAT) were cultured under standard cell culture techniques (cells were grown at 37°C and 5% CO2 in DMEM-culture media (supplemented with 10% dialysed foetal calf serum (FCS), 2mM 1-glutamine and 250µg/ml geneticin)). Cells were harvested for the assay to yield a cell suspension of 750,000 cells/ml.
Assays were carried out in 96-well filter bottom plates. Cells (7500 cells/assay well) were pre-incubated in standard assay buffer containing either test compound, standard inhibitor or compound vehicle (1% DMSO) for 5 minutes. Reactions were started by addition of either ^3H-Serotonin, ^3H-Noradrenaline or ^3H-Dopamine substrates. All reactions were carried out at room temperature in a shaking incubator. Incubation times were 5 minutes for the hSERT and hDAT assays and 15 minutes for the hNET assay. Reactions were terminated by removal of the reaction mixture using a vacuum manifold followed by rapid washing with ice cold assay buffer. The quantity of ^3H-substrate incorporated into the cells was then quantified.
Assay plates were dried in a microwave oven, scintillation fluid added, and radioactivity measured. Potency of test compounds was quantified as IC50 values (concentration of test compound required to inhibit the specific uptake of radiolabelled substrate into the cells by 50%).
Standard Assay Buffer Composition: • Trizma hydrochloride (26mM) • NaCl (124mM) • KCl (4.5mM) • KH2PO4 (1.2mM) • MgCl2.6H2O (1.3mM) • Ascorbic acid (1.136mM) • Glucose (5.55mM) • pH 7.40 • CaCl2 (2.8mM) • Pargyline (100µM)
Note: The pH of the buffer was adjusted to 7.40 with 1M NaOH before addition of CaCl2 and pargyline.

[1] = inhibition of the up-take of serotonin by human serotonin transporters, HEK-293 hSERT cells, 3H-5HT (50nM), incubation 5 minutes, room temperature, read-out: IC50 value

T1 sequence (P31645 whole entry): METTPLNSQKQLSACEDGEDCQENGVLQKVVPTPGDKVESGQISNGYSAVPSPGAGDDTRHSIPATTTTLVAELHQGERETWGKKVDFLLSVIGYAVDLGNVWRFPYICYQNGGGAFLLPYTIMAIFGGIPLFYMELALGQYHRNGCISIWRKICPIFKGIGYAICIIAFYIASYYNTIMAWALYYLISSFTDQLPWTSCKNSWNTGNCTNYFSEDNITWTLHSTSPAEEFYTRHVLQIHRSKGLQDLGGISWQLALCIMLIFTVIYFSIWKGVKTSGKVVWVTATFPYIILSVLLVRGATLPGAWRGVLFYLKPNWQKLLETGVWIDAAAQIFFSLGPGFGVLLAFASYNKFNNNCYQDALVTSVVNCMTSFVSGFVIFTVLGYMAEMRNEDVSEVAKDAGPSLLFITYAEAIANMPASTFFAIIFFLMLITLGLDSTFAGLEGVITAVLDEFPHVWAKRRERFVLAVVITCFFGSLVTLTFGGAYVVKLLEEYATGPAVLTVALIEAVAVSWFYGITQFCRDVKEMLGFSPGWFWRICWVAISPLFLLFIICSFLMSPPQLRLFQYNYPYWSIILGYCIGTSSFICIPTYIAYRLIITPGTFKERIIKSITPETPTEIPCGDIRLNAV

SMILES | pIC50 [1] | pIC50
CN[C@H]1CC[C@@H](c2ccc(Cl)c(Cl)c2)c2ccc(-c3ncn[nH]3)cc21 [Example 55, Cis-(1S)-N-methyl-7-(3-(1,2,4-triazolyl))-4-(3,4-dichlorophenyl)-1,2,3,4-tetrahydro-1-naphthalenamine hydrochloride] | ≥ 7.00 | –
CN[C@H]1CC[C@@H](c2ccc(Cl)c(Cl)c2)c2ccc(-c3ncnn3C)cc21 [Example 56, Cis-(1S)-N-methyl-7-(3-(N(2)methyl-1,2,4-triazolyl)-4-(3,4-dichlorophenyl)-1,2,3,4-tetrahydro-1-naphthalenamine hydrochloride] | ≥ 7.00 | –
CN[C@H]1CC[C@@H](c2ccc(Cl)c(Cl)c2)c2ccc(CNC(N)=O)cc21 [Example 37, Cis-(1S)-N-methyl-7-((N-aminocarboxy)aminomethyl)-4-(3,4-dichlorophenyl)-1,2,3,4-tetrahydro-1-naphthalenamine hydrochloride] | ≥ 7.00 | –
CN[C@H]1CC[C@@H](c2ccc(Cl)c(Cl)c2)c2ccc(CS(C)(=O)=O)cc21 [Example 74, Cis-(1S)-N-methyl-7-((methylsulphonyl)methyl)-4-(3,4-dichlorophenyl)-1,2,3,4-tetrahydro-1-naphthalenamine] | – | ≥ 7.00
